The values that follow come from patent US9822110B2, “Sulfonamide derivative and pharmaceutical use thereof” (EA Pharma Co., Ltd., priority 2013, dated 2017).

pIC50: −log10 of the molar value.

The target in the assay is T1, MAdCAM-1/α4β7 integrin (Homo sapiens, UniProt P13612+P26010).
T1 construct: a human B-cell line known to express α4β7 integrin; endogenous in cells; host or cells: RPMI-8866 (human B-cell line)
T1 sequence (P13612 34-1032): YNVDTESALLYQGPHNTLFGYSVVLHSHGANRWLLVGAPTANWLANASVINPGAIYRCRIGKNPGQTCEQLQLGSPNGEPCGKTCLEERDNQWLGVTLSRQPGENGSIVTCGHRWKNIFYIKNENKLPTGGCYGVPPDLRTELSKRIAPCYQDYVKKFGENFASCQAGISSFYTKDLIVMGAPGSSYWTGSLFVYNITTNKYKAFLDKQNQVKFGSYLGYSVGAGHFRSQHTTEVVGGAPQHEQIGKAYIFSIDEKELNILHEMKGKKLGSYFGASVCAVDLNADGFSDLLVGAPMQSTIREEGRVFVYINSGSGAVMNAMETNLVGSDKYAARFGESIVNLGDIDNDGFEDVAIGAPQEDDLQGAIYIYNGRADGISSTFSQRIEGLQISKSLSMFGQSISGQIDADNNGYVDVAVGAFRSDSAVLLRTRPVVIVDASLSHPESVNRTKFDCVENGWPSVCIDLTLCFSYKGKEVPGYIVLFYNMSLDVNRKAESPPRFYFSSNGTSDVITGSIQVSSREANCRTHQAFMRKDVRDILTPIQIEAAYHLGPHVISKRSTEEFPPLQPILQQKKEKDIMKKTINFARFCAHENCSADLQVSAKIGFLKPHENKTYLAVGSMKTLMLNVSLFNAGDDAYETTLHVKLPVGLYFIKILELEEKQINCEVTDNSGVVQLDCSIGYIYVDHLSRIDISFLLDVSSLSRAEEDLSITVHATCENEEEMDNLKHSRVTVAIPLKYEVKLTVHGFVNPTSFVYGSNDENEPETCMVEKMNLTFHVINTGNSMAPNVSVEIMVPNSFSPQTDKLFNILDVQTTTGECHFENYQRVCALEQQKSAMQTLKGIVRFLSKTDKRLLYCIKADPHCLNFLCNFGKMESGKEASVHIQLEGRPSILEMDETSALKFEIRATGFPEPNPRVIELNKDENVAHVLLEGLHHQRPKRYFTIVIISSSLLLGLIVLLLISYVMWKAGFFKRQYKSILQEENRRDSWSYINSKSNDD
T1 sequence (P26010 20-798): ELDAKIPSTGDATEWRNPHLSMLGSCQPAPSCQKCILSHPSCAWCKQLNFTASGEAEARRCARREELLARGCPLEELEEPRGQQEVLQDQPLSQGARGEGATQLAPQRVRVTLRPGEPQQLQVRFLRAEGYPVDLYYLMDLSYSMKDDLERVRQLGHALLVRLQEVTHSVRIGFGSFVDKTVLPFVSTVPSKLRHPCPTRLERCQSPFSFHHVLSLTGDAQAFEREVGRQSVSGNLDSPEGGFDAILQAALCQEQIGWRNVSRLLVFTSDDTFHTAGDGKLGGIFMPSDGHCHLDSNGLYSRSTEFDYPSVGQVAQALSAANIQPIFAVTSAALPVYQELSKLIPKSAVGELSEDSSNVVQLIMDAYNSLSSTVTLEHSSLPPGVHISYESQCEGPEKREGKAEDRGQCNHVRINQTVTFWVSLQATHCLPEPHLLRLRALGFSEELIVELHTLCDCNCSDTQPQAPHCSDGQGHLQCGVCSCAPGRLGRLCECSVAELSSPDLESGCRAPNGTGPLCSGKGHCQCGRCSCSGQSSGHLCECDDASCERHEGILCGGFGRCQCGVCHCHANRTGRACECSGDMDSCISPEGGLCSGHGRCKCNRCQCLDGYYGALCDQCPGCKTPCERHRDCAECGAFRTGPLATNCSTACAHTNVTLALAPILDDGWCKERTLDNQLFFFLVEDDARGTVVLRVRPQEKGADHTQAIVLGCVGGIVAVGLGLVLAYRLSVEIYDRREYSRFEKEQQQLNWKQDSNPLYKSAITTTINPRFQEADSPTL
Put plainly: Evaluation test (1) for MAdCAM-1/α4β7 integrin binding inhibitory activity in the presence of serum (RPMI-8866 cell binding to MAdCAM-1/Fc). Conditions: RPMI-8866 cells, recombinant mouse MAdCAM-1/Fc, human serum at final concentration of 50%; read-out: α4β7 Serum Activity rank when α4β7 serum was added. Format: cell-based. As for the experimental part:
The selectivity was determined by dividing the IC50 value in the evaluation test for VCAM-1/α4β1 integrin binding inhibitory activity by the IC50 value in the evaluation test for MAdCAM-1/α4β7 integrin binding inhibitory activity. • (3) Evaluation Test (1) for MAdCAM-1/α4β7 Integrin Binding Inhibitory Activity in the Presence of Serum
The ability of test substances to inhibit the binding of RPMI-8866 cell line, a human B-cell line known to express α4β7 integrin, to MAdCAM-1 was examined.
A 96-well microtiter plate was coated overnight at 4° C. with a recombinant mouse MAdCAM-1/Fc (R&D systems) solution diluted with the buffer A (carbonate buffer, pH 9.6). After washing once with PBS, 150 μL/well of Block Ace (manufactured by Snow Brand Milk Products Co., Ltd.) was added, and it was incubated at room temperature for 2 hours. After removal, it was washed once with PBS.
100 μL of each of test substances and RPMI-8866 cells diluted with a binding buffer solution (DMEM containing 40 mM HEPES, 0.2% BSA, and 4 mM MnCl2) to various concentrations was added to the plate coated with MAdCAM-1/Fc, so that human serum was contained at a final concentration of 50%, and it was incubated at 30° C. for 15 minutes to 60 minutes. After the cells were bound to the wells, unbound cells were removed by washing with PBS. 50 μL/well of the buffer solution C (PBS containing 1.5% Triton X-100) was added to the plate to dissolve the bound RPMI-8866 cells. 30 μL of substrate buffer (Promega, CytoTox 96 Non-Radioactive Cytotoxicity Assay) was added to 30 μL of a cell lysate to allow a reaction for 30 minutes at room temperature in a dark place. 30 μL of stop solution (Promega, CytoTox 96 Non-Radioactive Cytotoxicity Assay) was added thereto to determine the absorbance at 490 nm using a plate reader. The absorbance was obtained herein by detecting the activity of lactate dehydrogenase (LDH) eluted in a supernatant of each well, that is, the absorbance is proportional to the number of RPMI-8866 cells remaining on the plate by being bound to MAdCAM-1. The test was duplicated, and the cell binding rate at various concentrations with the absorbance of the well containing no test substance being taken as 100% was determined, to calculate the concentration IC50 at which 50% of binding was inhibited.

Consider `Cn1c(=O)n(-c2ccc(C[C@H](NC(=O)c3cc(F)c(NS(=O)(=O)c4ccc(-c5cnc(C6CCNCC6)nc5)cc4)cc3F)C(=O)O)nc2)c(=O)c2ccncc21` [Example 26, (2S)-2-[[2,5-Difluoro-4-[[4-[2-(4-piperidyl)pyrimidin-5-yl]phenyl]sulfonylamino]benzoyl]amino]-3-[5-(1-methyl-2,4-dioxo-pyrido[3,4-d]pyrimidin-3-yl)-2-pyridyl]propanoic acid], for which the pIC50 was 7.30 to 8.00.

`Cn1c(=O)n(-c2ccc(C[C@H](NC(=O)c3cc(F)c(NS(=O)(=O)c4ccc(-c5cnc(C6CCOCC6)nc5)cc4)cc3F)C(=O)O)nc2)c(=O)c2ccncc21` [Example 27, (2S)-2-[[2,5-Difluoro-4-[[4-(2-tetrahydropyran-4-ylpyrimidin-5-yl)phenyl]sulfonylamino]benzoyl]amino]-3-[5-(1-methyl-2,4-dioxo-pyrido[3,4-d]pyrimidin-3-yl)-2-pyridyl]propionic acid]: the pIC50 was 6.70 to 7.30.

Regarding `COCc1ncc(-c2ccc(S(=O)(=O)Nc3cc(F)c(C(=O)N[C@@H](Cc4ccc(-n5c(=O)c6ccncc6n(C)c5=O)cn4)C(=O)O)cc3F)cc2)cn1` [Example 28, (2S)-2-[[2,5-Difluoro-4-[[4-[2-(methoxymethyl)pyrimidin-5-yl]phenyl]sulfonylamino]benzoyl]amino]-3-[5-(1-methyl-2,4-dioxo-pyrido[3,4-d]pyrimidin-3-yl)-2-pyridyl]propanoic acid], the pIC50 is 7.30 to 8.00.

Take `COCc1cn(-c2ccc(S(=O)(=O)Nc3cc(F)c(C(=O)N[C@@H](Cc4ccc(-n5c(=O)c6ccncc6n(C)c5=O)cn4)C(=O)O)cc3F)cc2)nn1` [Example 29, (2S)-2-[[2,5-Difluoro-4-[[4-[4-(methoxymethyl)triazol-1-yl]phenyl]sulfonylamino]benzoyl]amino]-3-[5-(1-methyl-2,4-dioxo-pyrido[3,4-d]pyrimidin-3-yl)-2-pyridyl]propanoic acid]: the pIC50 is 6.70 to 7.30.

`C=CCn1cc(-c2ccc(S(=O)(=O)Nc3cc(F)c(C(=O)N[C@@H](Cc4ccc(-n5c(=O)c6ccncc6n(C)c5=O)cn4)C(=O)O)cc3F)cc2)cnc1=O` [Example 30, (2S)-2-[[4-[[4-(1-Allyl-2-oxo-pyrimidin-5-yl)phenyl]sulfonylamino]-2,5-difluoro-benzoyl]amino]-3-[5-(1-methyl-2,4-dioxo-pyrido[3,4-d]pyrimidin-3-yl)-2-pyridyl]propanoic acid]: the pIC50 was 7.30 to 8.00.

Take `CN(C)CCc1ncc(-c2ccc(S(=O)(=O)Nc3cc(F)c(C(=O)N[C@@H](Cc4ccc(-n5c(=O)c6ccncc6n(C)c5=O)cn4)C(=O)O)cc3F)cc2)cn1` [Example 33, (2S)-2-[[4-[[4-[2-(2-Dimethylaminoethyl)pyrimidin-5-yl]phenyl]sulfonylamino]-2,5-difluoro-benzoyl]amino]-3-[5-(1-methyl-2,4-dioxo-pyrido[3,4-d]pyrimidin-3-yl)-2-pyridyl]propanoic acid]: the pIC50 was 7.30 to 8.00.

In the case of `Cn1c(=O)n(-c2ccc(C[C@H](NC(=O)c3cc(F)c(NS(=O)(=O)c4ccc(-c5ccnc(C6CCOCC6)c5)cn4)cc3F)C(=O)O)nc2)c(=O)c2ccncc21` [Example 34, (2S)-2-[[2,5-Difluoro-4-[[5-(2-tetrahydropyran-4-yl-4-pyridyl)-2-pyridyl]sulfonylamino]benzoyl]amino]-3-[5-(1-methyl-2,4-dioxo-pyrido[3,4-d]pyrimidin-3-yl)-2-pyridyl]propanoic acid], the pIC50 was 7.30 to 8.00.

`Cc1c(-c2ccc(C[C@H](NC(=O)c3cc(F)c(NS(=O)(=O)c4ccc(-c5cnc(N6CCC6)nc5)cc4)cc3F)C(=O)O)cc2)c(=O)n(C)c(=O)n1C` [Example 36, (2S)-2-[[4-[[4-[2-(Azetidin-1-yl)pyrimidin-5-yl]phenyl]sulfonylamino]-2,5-difluoro-benzoyl]amino]-3-[4-(1,3,4-trimethyl-2,6-dioxo-pyrimidin-5-yl)phenyl]propanoic acid]: the pIC50 was 6.70 to 7.30.

`Cc1cn(-c2ccc(S(=O)(=O)Nc3cc(F)c(C(=O)N[C@@H](Cc4ccc(-c5c(C)n(C)c(=O)n(C)c5=O)cc4)C(=O)O)cc3F)nc2)nn1` [Example 37, (2S)-2-[[2,5-Difluoro-4-[[5-(4-methyltriazol-1-yl)-2-pyridyl]sulfonylamino]benzoyl]amino]-3-[4-(1,3,4-trimethyl-2,6-dioxo-pyrimidin-5-yl)phenyl]propanoic acid]: the pIC50 was 7.30 to 8.00.

On to `Cc1c(-c2ccc(C[C@H](NC(=O)c3cc(F)c(NS(=O)(=O)c4ccco4)cc3F)C(=O)O)cc2)c(=O)n(C)c(=O)n1C` [Example 38, (2S)-2-[[2,5-Difluoro-4-(2-furylsulfonylamino)benzoyl]amino]-3-[4-(1,3,4-trimethyl-2,6-dioxo-pyrimidin-5-yl)phenyl]propanoic acid], for which the pIC50 was 7.30 to 8.00.

As to `CNCc1ccc2c(c1)c(=O)n(-c1ccc(C[C@H](NC(=O)c3cc(F)c(NS(=O)(=O)c4ccc(-c5cnc(COC)nc5)cc4)cc3F)C(=O)O)cc1)c(=O)n2C` [Example 39, (2S)-2-[[2,5-Difluoro-4-[[4-[2-(methoxymethyl)pyrimidin-5-yl]phenyl]sulfonylamino]benzoyl]amino]-3-[4-[1-methyl-6-(methylaminomethyl)-2,4-dioxo-quinazolin-3-yl]phenyl]propanoic acid], the pIC50 was 7.30 to 8.00.

On to `Cc1c(-c2ccc(C[C@H](NC(=O)c3cc(F)c(NS(=O)(=O)c4ccc(-c5cnc(COC(C)C)nc5)cc4)cc3F)C(=O)O)cc2)c(=O)n(C)c(=O)n1C` [Example 40, (2S)-2-[[2,5-Difluoro-4-[[4-[2-(isopropoxymethyl)pyrimidin-5-yl]phenyl]sulfonylamino]benzoyl]amino]-3-[4-(1,3,4-trimethyl-2,6-dioxo-pyrimidin-5-yl)phenyl]propanoic acid], for which the pIC50 is 6.70 to 7.30.
